Patent publication US20250109121A1, “POTENT AND SELECTIVE SMARCA2 DEGRADING CHIMERIC MOLECULES AS CANCER THERAPEUTICS” (BOARD OF REGENTS, THE UNIVERSITY OF TEXAS SYSTEM, priority 2021, published 2025)
Entries after “also recorded” stand apart in the source; their conditions may differ. Where two headings read alike, the source gives them in different places.

What was measured:
Type in all cases: cell-based
[1] = target: SMARCA4 (Homo sapiens, UniProt P51532); assay: SMARCA4 degradation in cell lines, western blot
SMARCA4, sequence (P51532 whole entry): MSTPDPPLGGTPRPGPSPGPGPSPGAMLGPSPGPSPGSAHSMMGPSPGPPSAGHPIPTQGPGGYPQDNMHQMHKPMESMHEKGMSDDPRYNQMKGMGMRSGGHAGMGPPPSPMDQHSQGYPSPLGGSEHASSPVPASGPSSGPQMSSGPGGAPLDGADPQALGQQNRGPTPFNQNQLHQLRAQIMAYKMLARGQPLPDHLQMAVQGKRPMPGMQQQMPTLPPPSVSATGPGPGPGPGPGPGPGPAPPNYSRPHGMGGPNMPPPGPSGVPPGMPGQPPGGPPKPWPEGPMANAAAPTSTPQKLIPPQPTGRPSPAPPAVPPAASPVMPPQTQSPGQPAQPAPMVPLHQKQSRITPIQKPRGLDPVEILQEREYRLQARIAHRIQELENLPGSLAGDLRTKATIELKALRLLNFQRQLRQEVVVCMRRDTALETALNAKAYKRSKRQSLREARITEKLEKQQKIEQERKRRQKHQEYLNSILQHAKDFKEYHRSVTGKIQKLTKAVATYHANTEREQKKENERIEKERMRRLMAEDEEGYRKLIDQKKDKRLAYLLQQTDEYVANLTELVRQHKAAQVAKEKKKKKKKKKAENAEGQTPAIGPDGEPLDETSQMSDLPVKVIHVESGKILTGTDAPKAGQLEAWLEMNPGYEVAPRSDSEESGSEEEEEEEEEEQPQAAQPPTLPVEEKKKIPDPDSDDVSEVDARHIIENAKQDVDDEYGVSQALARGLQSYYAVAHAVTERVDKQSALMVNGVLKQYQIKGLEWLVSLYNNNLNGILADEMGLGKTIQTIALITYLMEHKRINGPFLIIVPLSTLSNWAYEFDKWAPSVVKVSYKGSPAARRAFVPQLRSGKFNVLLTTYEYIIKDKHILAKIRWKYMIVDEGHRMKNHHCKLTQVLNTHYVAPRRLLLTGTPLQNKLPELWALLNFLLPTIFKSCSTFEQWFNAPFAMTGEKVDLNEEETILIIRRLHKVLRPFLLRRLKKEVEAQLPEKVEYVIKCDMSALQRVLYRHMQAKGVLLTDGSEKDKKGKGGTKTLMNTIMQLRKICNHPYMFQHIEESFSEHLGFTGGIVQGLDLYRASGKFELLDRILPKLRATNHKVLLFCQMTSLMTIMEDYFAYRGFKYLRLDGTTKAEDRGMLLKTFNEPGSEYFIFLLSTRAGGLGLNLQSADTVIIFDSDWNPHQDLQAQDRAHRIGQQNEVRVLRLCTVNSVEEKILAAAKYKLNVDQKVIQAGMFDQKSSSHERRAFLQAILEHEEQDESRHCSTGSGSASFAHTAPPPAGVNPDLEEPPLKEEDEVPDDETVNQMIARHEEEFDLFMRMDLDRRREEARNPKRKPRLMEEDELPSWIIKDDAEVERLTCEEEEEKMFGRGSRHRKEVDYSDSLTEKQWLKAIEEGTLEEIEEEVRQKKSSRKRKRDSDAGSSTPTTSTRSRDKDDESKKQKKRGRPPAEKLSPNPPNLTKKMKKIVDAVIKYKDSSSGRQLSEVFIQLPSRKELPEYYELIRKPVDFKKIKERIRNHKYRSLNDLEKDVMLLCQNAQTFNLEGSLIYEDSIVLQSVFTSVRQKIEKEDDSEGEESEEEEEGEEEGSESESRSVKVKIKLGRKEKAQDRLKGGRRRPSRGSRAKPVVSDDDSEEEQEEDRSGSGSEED

[2] = system: H441; assay: Cell proliferation (colony assay) IC50; settings: Homo sapiens, NCI-H441; H441, wild-type SMARCA4
[3] = system: HCC827; assay: Cell proliferation (colony assay) IC50; settings: Homo sapiens; HCC827, wild-type SMARCA4
[4] = system: HCC2279; assay: Cell proliferation (colony assay) IC50; settings: HCC2279, wild-type SMARCA4
[5] = system: HCC366; assay: Cell proliferation (colony assay) IC50; settings: HCC366, mutant SMARCA4
[6] = system: A549; assay: Cell proliferation (colony assay) IC50; settings: Homo sapiens; A549, mutant SMARCA4
[7] = system: H2126; assay: Cell proliferation (colony assay) IC50; settings: Homo sapiens, NCI-H2126; H2126, mutant SMARCA4
[8] = system: mutant SMARCA4 cells; assay: Colony assay / cell proliferation, mutant SMARCA4 cell lines as a group
Procedure: Cell lines with wild-type SMARCA4 (HCC44, H2122, H1792 and H1975) and cell lines with mutant SMARCA4 (H1693, HCC515, H322, and H1299) were seeded in appropriate dilutions to form colonies in about 1-3 weeks. Cells were treated with ACBI1 or Compound 101 at concentrations of 0.001, 0.01, 0.1, 1, and 10 μm. Colonies were fixed with glutaraldehyde (6% v/v), stained with crystal violet (0.5% w/v) and the percent area of colonies was determined (FIGS. 3A and 3B). In cell lines with wild-type SMARCA4, inhibition of colony growth was more pronounced after treatment with ACBI1 than Compound 101 (FIG. 3A).

[9] = target: SMARCA2 (Homo sapiens, UniProt P51531); assay: SMARCA2 degradation in cell lines, western blot
SMARCA2, sequence (P51531 whole entry): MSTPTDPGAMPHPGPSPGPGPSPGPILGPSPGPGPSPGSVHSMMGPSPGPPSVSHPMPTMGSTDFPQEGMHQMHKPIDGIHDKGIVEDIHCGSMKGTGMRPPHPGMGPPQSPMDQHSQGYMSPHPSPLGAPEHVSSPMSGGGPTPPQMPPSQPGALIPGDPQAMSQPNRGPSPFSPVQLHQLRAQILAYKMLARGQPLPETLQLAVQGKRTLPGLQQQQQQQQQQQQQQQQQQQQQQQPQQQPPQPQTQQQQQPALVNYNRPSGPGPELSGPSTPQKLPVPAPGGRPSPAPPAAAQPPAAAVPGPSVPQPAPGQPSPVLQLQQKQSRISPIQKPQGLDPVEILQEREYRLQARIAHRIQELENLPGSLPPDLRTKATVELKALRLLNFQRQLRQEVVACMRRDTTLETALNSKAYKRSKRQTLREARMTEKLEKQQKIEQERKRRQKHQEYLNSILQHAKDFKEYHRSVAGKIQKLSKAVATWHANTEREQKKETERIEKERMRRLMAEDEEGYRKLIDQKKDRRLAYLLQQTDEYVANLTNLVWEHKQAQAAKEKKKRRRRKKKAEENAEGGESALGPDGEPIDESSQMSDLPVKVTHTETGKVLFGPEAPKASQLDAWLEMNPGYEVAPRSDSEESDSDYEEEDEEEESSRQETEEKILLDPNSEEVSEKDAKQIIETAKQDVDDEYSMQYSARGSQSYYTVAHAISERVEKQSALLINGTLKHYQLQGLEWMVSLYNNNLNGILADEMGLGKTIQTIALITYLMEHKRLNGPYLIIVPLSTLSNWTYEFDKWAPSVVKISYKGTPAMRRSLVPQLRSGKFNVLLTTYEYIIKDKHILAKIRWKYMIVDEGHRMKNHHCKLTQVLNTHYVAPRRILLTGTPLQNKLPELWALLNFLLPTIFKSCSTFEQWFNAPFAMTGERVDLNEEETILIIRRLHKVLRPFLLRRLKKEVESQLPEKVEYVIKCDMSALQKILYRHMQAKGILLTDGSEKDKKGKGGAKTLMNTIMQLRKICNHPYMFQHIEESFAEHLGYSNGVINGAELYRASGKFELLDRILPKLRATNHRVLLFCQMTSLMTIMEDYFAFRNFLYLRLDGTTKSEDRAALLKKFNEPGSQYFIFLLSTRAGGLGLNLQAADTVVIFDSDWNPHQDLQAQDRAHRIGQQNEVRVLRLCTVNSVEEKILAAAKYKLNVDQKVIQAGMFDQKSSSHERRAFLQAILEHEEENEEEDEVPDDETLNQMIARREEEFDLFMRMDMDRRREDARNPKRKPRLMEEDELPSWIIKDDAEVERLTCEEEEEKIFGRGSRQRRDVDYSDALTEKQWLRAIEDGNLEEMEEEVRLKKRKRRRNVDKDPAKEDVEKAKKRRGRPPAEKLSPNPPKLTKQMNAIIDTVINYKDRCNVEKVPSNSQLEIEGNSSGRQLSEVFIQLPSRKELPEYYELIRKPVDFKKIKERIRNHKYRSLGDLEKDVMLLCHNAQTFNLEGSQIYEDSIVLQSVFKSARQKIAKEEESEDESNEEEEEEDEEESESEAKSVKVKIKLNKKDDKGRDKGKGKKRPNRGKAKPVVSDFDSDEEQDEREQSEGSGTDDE

SMARCA4 Dmax (%) ([1]; H441, wild-type SMARCA4 cell line): 37%
DC50 ([1]; H441, wild-type SMARCA4 cell line, read-out: SMARCA4 DC50): > 10000 nM
DC50 ([1]; H1792, wild-type SMARCA4 cell line, read-out: SMARCA4 DC50): > 10000 nM
Dmax ([1]; H1975, H1792, H2122, H441 (Table 3), read-out: SMARCA4 Dmax, span over cell lines): 38 to 50%
SMARCA4 degradation (western blot, in words) ([1]; H1975, H1792, H2122, H441, 0.001-10 μm, increasing concentrations): degraded SMARCA2 and SMARCA4
DC50 ([1]; H1975, wild-type SMARCA4 cell line, read-out: SMARCA4 DC50): > 10000 nM
DC50 ([1]; H2122, wild-type SMARCA4 cell line, read-out: SMARCA4 DC50): > 10000 nM
DC50 ([1]; H2228, wild-type SMARCA4 cell line, read-out: SMARCA4 DC50): > 10000 nM
Dmax ([1]; HCC44, HCC44, wild-type SMARCA4 cell line, read-out: SMARCA4 Dmax (%)): 39%
DC50 ([1]; HCC44, wild-type SMARCA4 cell line, read-out: SMARCA4 DC50): > 10000 nM
Dmax ([1]; HCC827, HCC827, wild-type SMARCA4 cell line, read-out: SMARCA4 Dmax (%)): 39%
DC50 ([1]; HCC827, wild-type SMARCA4 cell line, read-out: SMARCA4 DC50): > 10000 nM
DC50 ([1]; HCC2279, wild-type SMARCA4 cell line, read-out: SMARCA4 DC50): 560 nM
Dmax ([1]; HCC2279, wild-type SMARCA4 cell line, read-out: SMARCA4 Dmax (%)): 79%
DC50 ([1]; HOP62, wild-type SMARCA4 cell line, read-out: SMARCA4 DC50): 1410 nM
Dmax ([1]; HOP-62, HOP62, wild-type SMARCA4 cell line, read-out: SMARCA4 Dmax (%)): 77%
Dmax ([1]; NCI-H441, H441, wild-type SMARCA4 cell line, read-out: SMARCA4 Dmax (%)): 50%
Dmax ([1]; NCI-H1792, H1792, wild-type SMARCA4 cell line, read-out: SMARCA4 Dmax (%)): 38%
Dmax ([1]; NCI-H2122, H2122, wild-type SMARCA4 cell line, read-out: SMARCA4 Dmax (%)): 47%
Dmax ([1]; NCI-H2228, H2228, wild-type SMARCA4 cell line, read-out: SMARCA4 Dmax (%)): 25%
Dmax ([1]; wild-type SMARCA4 cells (Table 4), read-out: SMARCA4 Dmax, span over cell lines): 38 to 79%
DC50 ([1]; wild-type SMARCA4 cells (Table 4), upper end printed as above 10 μM, read-out: DC50 for SMARCA4 degradation, lower end of span over cell lines): ≥ 560 nM
IC50 [2]: > 10000 nM
IC50 [3]: > 10000 nM
IC50 [4]: > 10000 nM
IC50 [5]: 242 nM
IC50 [6]: > 10000 nM
IC50 [7]: ~20 nM
Dmax ([9]; A549, A549, mutant SMARCA4 cell line, read-out: SMARCA2 Dmax (%)): 96%
DC50 ([9]; A549, mutant SMARCA4 cell line): 57 nM
DC50 ([9]; H322, mutant SMARCA4 cell line): 27 nM
DC50 ([9]; H838, mutant SMARCA4 cell line): 26 nM
DC50 ([9]; H1693, mutant SMARCA4 cell line): 113 nM
DC50 ([9]; H1793, mutant SMARCA4 cell line): 2 nM
DC50 ([9]; H2023, mutant SMARCA4 cell line): 42 nM
DC50 ([9]; H2126, mutant SMARCA4 cell line): 10 nM
DC50 ([9]; H2228, wild-type SMARCA4 cell line): 106 nM
DC50 ([9]; H2935, mutant SMARCA4 cell line): 8 nM
Dmax ([9]; H2935, mutant SMARCA4 cell line, read-out: SMARCA2 Dmax (%)): 83%
Dmax ([9]; HCC44, HCC44, wild-type SMARCA4 cell line, read-out: SMARCA2 Dmax (%)): 99%
DC50 ([9]; HCC44, wild-type SMARCA4 cell line): 69 nM
Dmax ([9]; HCC366, HCC366, mutant SMARCA4 cell line, read-out: SMARCA2 Dmax (%)): 99%
DC50 ([9]; HCC366, mutant SMARCA4 cell line): 13 nM
Dmax ([9]; HCC515, HCC515, mutant SMARCA4 cell line, read-out: SMARCA2 Dmax (%)): 81%
DC50 ([9]; HCC515, mutant SMARCA4 cell line): 83 nM
Dmax ([9]; HCC827, HCC827, wild-type SMARCA4 cell line, read-out: SMARCA2 Dmax (%)): 83%
DC50 ([9]; HCC827, wild-type SMARCA4 cell line): 70 nM
DC50 ([9]; HCC2279, wild-type SMARCA4 cell line): 32 nM
Dmax ([9]; HCC2279, wild-type SMARCA4 cell line, read-out: SMARCA2 Dmax (%)): 99%
DC50 ([9]; HOP62, wild-type SMARCA4 cell line): 33 nM
Dmax ([9]; HOP-62, HOP62, wild-type SMARCA4 cell line, read-out: SMARCA2 Dmax (%)): 99%
Dmax ([9]; NCI-H322, H322, mutant SMARCA4 cell line, read-out: SMARCA2 Dmax (%)): 99%
Dmax ([9]; NCI-H441, H441, wild-type SMARCA4 cell line, read-out: SMARCA2 Dmax (%)): 67%
Dmax ([9]; NCI-H838, H838, mutant SMARCA4 cell line, read-out: SMARCA2 Dmax (%)): 98%
Dmax ([9]; NCI-H1693, H1693, mutant SMARCA4 cell line, read-out: SMARCA2 Dmax (%)): 84%
Dmax ([9]; NCI-H1792, H1792, wild-type SMARCA4 cell line, read-out: SMARCA2 Dmax (%)): 89%
Dmax ([9]; NCI-H1793, H1793, mutant SMARCA4 cell line, read-out: SMARCA2 Dmax (%)): 99%
Dmax ([9]; NCI-H1975, H1975, wild-type SMARCA4 cell line, maximum degradation as percentage of DMSO control, read-out: SMARCA2 Dmax (%)): 93%
Dmax ([9]; NCI-H2023, H2023, mutant SMARCA4 cell line, read-out: SMARCA2 Dmax (%)): 99%
Dmax ([9]; NCI-H2122, H2122, wild-type SMARCA4 cell line, read-out: SMARCA2 Dmax (%)): 94%
Dmax ([9]; NCI-H2126, H2126, mutant SMARCA4 cell line, read-out: SMARCA2 Dmax (%)): 99%
Dmax ([9]; NCI-H2228, H2228, wild-type SMARCA4 cell line, read-out: SMARCA2 Dmax (%)): 82%
Dmax ([9]; mutant SMARCA4 cells (Table 5), read-out: SMARCA2 Dmax, span over cell lines): 81 to 99%
Dmax ([9]; wild-type SMARCA4 cells (Table 4), read-out: SMARCA2 Dmax, span over cell lines): 82 to 99%
SMILES: Nc1nnc(-c2ccccc2O)cc1N1CCN(Cc2ccc(OCCOCCNc3cccc4c3C(=O)N(C3CCC(=O)NC3=O)C4=O)c(F)c2)CC1 (stereo not shown) [Compound 101]
colony growth / proliferation of mutant SMARCA4 cells (in words) ([8]; H1693, HCC515, H322, H1299, 0.001-10 μm): selectively inhibited SMARCA4 mutant cells; also recorded: selectively inhibited cell proliferation in mutant SMARCA4 cell lines
IC50 ([8]; mutant SMARCA4 cells (Table 5), upper end printed as >10 M, read-out: IC50, lower end of span over cell lines): ≥ 93 nM
inhibition at 0.1 µM ([8]; read-out: inhibition at 100 nM in SMARCA4 mutant cells (see FIG. 3D)): ≤ 50%
